The supplement of paper PMC13380429

Tests used:
Settings in all cases: 72 h
[1] = test system: HepG2; assay: drug sensitivity score (DSS) for viability; higher = more toxic; extreme values may be limits of the assay
[2] = test system: Caco-2; assay: as above
[3] = test system: Vero E6; assay: as above
[4] = test system: Calu-3; assay: as above
[5] = test system: U2OS; assay: as above
[6] = test system: HepG2; assay: cell viability relative to DMSO; higher = less toxic
[7] = test system: Caco-2; assay: as above
[8] = test system: Vero E6; assay: as above
[9] = test system: Calu-3; assay: as above
[10] = test system: U2OS; assay: as above
[11] = test system: HepG2; assay: relative viability EC50 (midpoint between 100% and the lowest measured viability); higher = less toxic
[12] = test system: Caco-2; assay: as above
[13] = test system: Vero E6; assay: as above
[14] = test system: Calu-3; assay: as above
[15] = test system: U2OS; assay: as above

| Compound | drug sensitivity score [1] | drug sensitivity score [2] | drug sensitivity score [3] | drug sensitivity score [4] | drug sensitivity score [5] | cell viability ([6]; 1 nM) [%] | cell viability ([6]; 10 nM) [%] | cell viability ([6]; 100 nM) [%] | cell viability ([6]; 1000 nM) [%] | cell viability ([6]; 10000 nM) [%] | cell viability ([7]; 1 nM) [%] | cell viability ([7]; 10 nM) [%] | cell viability ([7]; 100 nM) [%] | cell viability ([7]; 1000 nM) [%] | cell viability ([7]; 10000 nM) [%] | cell viability ([8]; 1 nM) [%] | cell viability ([8]; 10 nM) [%] | cell viability ([8]; 100 nM) [%] | cell viability ([8]; 1000 nM) [%] | cell viability ([8]; 10000 nM) [%] | cell viability ([9]; 1 nM) [%] | cell viability ([9]; 10 nM) [%] | cell viability ([9]; 100 nM) [%] | cell viability ([9]; 1000 nM) [%] | cell viability ([9]; 10000 nM) [%] | cell viability ([10]; 1 nM) [%] | cell viability ([10]; 10 nM) [%] | cell viability ([10]; 100 nM) [%] | cell viability ([10]; 1000 nM) [%] | cell viability ([10]; 10000 nM) [%] | relative viability EC50 [11] [µM] | relative viability EC50 [12] [µM] | relative viability EC50 [13] [µM] | relative viability EC50 [14] [µM] | relative viability EC50 [15] [µM] |
| --- | --- | --- | --- | --- | --- | --- | --- | --- | --- | --- | --- | --- | --- | --- | --- | --- | --- | --- | --- | --- | --- | --- | --- | --- | --- | --- | --- | --- | --- | --- | --- | --- | --- | --- | --- |
| CC(NC(=O)c1ccccc1/N=C/c1c(O)ccc2ccccc12)c1ccccc1 (stereo not given) [sirtinol] | 0 | 0 | 0 | 0 | 0 | 101 | 106 | 90.7 | 96.9 | 100 | 93.6 | 97.8 | 101 | 105 | 110 | 97.1 | 91.2 | 93 | 92.4 | 101 | 96.5 | 97.6 | 104 | 112 | 104 | 96.8 | 102 | 96.1 | 101 | 103 | > 10 | > 10 | > 10 | > 10 | > 10 |
| COc1cc(OC)c(NC(=O)Nc2cc(C)on2)cc1Cl | 0 | 0 | 0 | 0 | 0 | 102 | 108 | 97 | 110 | 103 | 98.9 | 102 | 90.3 | 96.3 | 90 | 99 | 104 | 102 | 104 | 96.8 | 86.7 | 98.4 | 97.2 | 95.1 | 90 | 97 | 99.9 | 97.2 | 98.4 | 97.4 | > 10 | > 10 | > 10 | > 10 | > 10 |
| Oc1ccc(/C=C/c2cc(O)cc(O)c2)cc1 [resveratrol] | 0 | 0 | 0 | 0.1 | 0 | 107 | 116 | 108 | 97.9 | 104 | 93.3 | 91.6 | 95.8 | 99.3 | 90.1 | 97.5 | 97.3 | 94.9 | 100 | 98.6 | 106 | 103 | 94.8 | 93.7 | 87.2 | 97.7 | 95 | 96.9 | 106 | 106 | > 10 | > 10 | > 10 | > 10 | > 10 |
| COc1cccc2c1C(=O)c1c(O)c3c(c(O)c1C2=O)C[C@@](O)(C(=O)CO)C[C@@H]3O[C@H]1C[C@H](N)[C@H](O[C@@H]2CCCCO2)[C@H](C)O1 [pirarubicin] | 13.5 | 7.9 | 6.3 | 9.6 | 8 | 104 | 101 | 87.4 | 38.3 | 0.8 | 96.9 | 92.4 | 89.7 | 68.4 | 20.7 | 102 | 98.1 | 96.7 | 73.5 | 40.6 | 103 | 92.7 | 86.7 | 59.1 | 27.4 | 98.9 | 99.5 | 99.4 | 84.6 | 1.1 | 0.619 | 1.25 | 1.12 | 0.622 | 1.95 |
| CN1C(=O)N(c2cc(Cl)cc(Cl)c2)C(=O)[C@@]1(C)Cc1ccc(Br)cc1 [BIRT-377] | 0 | 0.3 | 0 | 0 | 0 | 105 | 101 | 104 | 86.6 | 103 | 101 | 98 | 97.9 | 102 | 83.4 | 98.7 | 96.8 | 104 | 95.3 | 101 | 98.4 | 92.8 | 91.1 | 105 | 92.7 | 98.1 | 100 | 95.2 | 99.2 | 88.8 | > 10 | > 10 | > 10 | > 10 | > 10 |
| NCc1cc(O)no1 [muscimol] | 0 | 0 | 0 | 0 | 0 | 96.8 | 105 | 97.7 | 98.1 | 94.5 | 94.7 | 96.5 | 98.4 | 99.5 | 103 | 98.8 | 97 | 93.1 | 97.1 | 101 | 91.6 | 95.7 | 98.3 | 104 | 97.3 | 101 | 94.6 | 99.6 | 98.6 | 97.3 | > 10 | > 10 | > 10 | > 10 | > 10 |
| CN1C(C(=O)Nc2ccccn2)=C(O)c2ccccc2S1(=O)=O [piroxicam] | 0 | 0 | 0 | 0 | 0 | 92 | 107 | 92.5 | 105 | 115 | 93.6 | 96 | 104 | 100 | 100 | 93.1 | 101 | 94.4 | 93.5 | 114 | 99.8 | 95.5 | 101 | 96.8 | 105 | 98.5 | 94.9 | 99.3 | 95.9 | 101 | > 10 | > 10 | > 10 | > 10 | > 10 |
| CCN(CC)CCNC(=O)COc1ccc(OC)cc1 [mefexamide] | 0 | 0.1 | 0 | 0 | 0 | 114 | 73.9 | 92.7 | 114 | 119 | 93 | 98.3 | 81.7 | 81.9 | 102 | 95.1 | 106 | 95.4 | 96.8 | 108 | 108 | 106 | 109 | 106 | 98.5 | 97.9 | 99.3 | 104 | 98 | 102 | > 10 | > 10 | > 10 | > 10 | > 10 |
| COc1cc2c(cc1OC)-c1c(C)c3ccc(OC)c(OC)c3c[n+]1CC2 [dehydrocorydaline] | 0 | 0 | 0 | 0 | 0 | 98.6 | 99.4 | 95.1 | 94.2 | 95.7 | 97.6 | 100 | 92.5 | 101 | 88.8 | 95.9 | 100 | 99.6 | 94.8 | 98.5 | 96.4 | 105 | 91.2 | 102 | 100 | 99.1 | 101 | 98.6 | 100 | 97.1 | > 10 | > 10 | > 10 | > 10 | > 10 |
| COc1ccc(S(=O)(=O)Nc2cc(Cl)cc(Cl)c2OC)cc1N1CCNCC1 | 0 | 0 | 0 | 0 | 0 | 98.9 | 90.2 | 103 | 98.7 | 102 | 102 | 97.9 | 97.9 | 92.9 | 94.7 | 102 | 103 | 99.1 | 98.7 | 91.2 | 99 | 103 | 99.2 | 106 | 111 | 109 | 98 | 105 | 96.3 | 100 | > 10 | > 10 | > 10 | > 10 | > 10 |
| CC(C)(C)C#Cc1cc(N(C(=O)[C@H]2CC[C@H](C)CC2)[C@H]2CC[C@@H](O)CC2)c(C(=O)O)s1 [VX-222] | 0 | 0 | 0 | 0 | 0 | 98.7 | 101 | 91.7 | 96.2 | 101 | 103 | 114 | 102 | 99.8 | 101 | 104 | 96.1 | 106 | 99.8 | 102 | 92.5 | 94.9 | 99.2 | 99.3 | 104 | 105 | 106 | 98.2 | 105 | 97.6 | > 10 | > 10 | > 10 | > 10 | > 10 |
| Cc1ccc(C(=O)Nc2ccc(CN3CCN(C)CC3)c(C(F)(F)F)c2)cc1C#Cc1cnc2[nH]ncc2c1 [GZD824] | 17.2 | 10.1 | 16.6 | 13.9 | 15.4 | 106 | 98.8 | 71.2 | 27.1 | 0.4 | 102 | 98.6 | 86.7 | 59 | 2.4 | 103 | 102 | 86.5 | 19.1 | 0.2 | 96.7 | 86.8 | 76.8 | 45.9 | 3.7 | 99.5 | 104 | 77.5 | 32.5 | 0.3 | 0.297 | 1.17 | 0.365 | 0.497 | 0.42 |
| Cc1cc(-c2ncc(CC(=O)Nc3ccc(-c4cnccn4)cn3)cc2C)ccn1 [LGK-974] | 3.7 | 1.8 | 0 | 0.8 | 0 | 95 | 99.7 | 97.9 | 96.9 | 39.6 | 97.1 | 96.6 | 89.2 | 91.2 | 75.2 | 93 | 96.6 | 90.7 | 93.4 | 107 | 93.6 | 97 | 84.2 | 90.3 | 87.8 | 97.4 | 96.8 | 92.7 | 93.4 | 91.4 | 2.77 | > 10 | > 10 | > 10 | > 10 |
| Cc1cc(OI)c(C(C)C)cc1-c1cc(C(C)C)c(OI)cc1C [thymol-iodide] | 0 | 0.2 | 0 | 0 | 0 | 99.5 | 105 | 92.8 | 99.1 | 93.7 | 104 | 102 | 103 | 97.7 | 87.9 | 104 | 102 | 99.7 | 99.5 | 97.7 | 91.2 | 97 | 102 | 101 | 105 | 101 | 103 | 103 | 98.2 | 99.6 | > 10 | > 10 | > 10 | > 10 | > 10 |
